Data published in patent publication US12435059B2, “AMP-activated protein kinase inhibitors and methods of making and using the same” (The Regents of the University of Colorado, priority 2019, dated 2025).
Like-named read-outs stand apart in the source and are kept apart here.

How the values were obtained:
Experiment in all cases: biochemical
Type in all cases: binding
[1] = target: 468 kinases (Homo sapiens, UniProt P04049); conditions: RAF1; read-out: % Inhibition @ 100 nM
[2] = target: 468 kinases (Homo sapiens, UniProt O14757); conditions: CHEK1; read-out: % Inhibition @ 100 nM
[3] = target: 468 kinases (Homo sapiens, UniProt P32298); conditions: GRK4; read-out: % Inhibition @ 100 nM
[4] = target: 468 kinases (Homo sapiens, UniProt P42336, M1043I); conditions: PIK3CA(M10431); read-out: % Inhibition @ 100 nM
[5] = target: 468 kinases (Mycobacterium tuberculosis, UniProt P9WI81); conditions: PKNB(M.tuberculosis); read-out: % Inhibition @ 100 nM
[6] = target: 468 kinases (Homo sapiens, UniProt Q9H2G2); conditions: SLK; read-out: % Inhibition @ 100 nM
[7] = target: 468 kinases (Homo sapiens, UniProt Q8TF76); conditions: HASPIN; read-out: % Inhibition @ 100 nM
[8] = target: 468 kinases (Homo sapiens, UniProt Q00532); conditions: CDKL1; read-out: % Inhibition @ 100 nM
[9] = target: 468 kinases (Homo sapiens, UniProt P11362); conditions: FGFR1; read-out: % Inhibition @ 100 nM
[10] = target: 468 kinases (Homo sapiens, UniProt P42336); conditions: PIK3CA; read-out: % Inhibition @ 100 nM
[11] = target: 468 kinases (Homo sapiens, UniProt Q13873); conditions: BMPR2; read-out: % Inhibition @ 100 nM
[12] = target: 468 kinases (Homo sapiens, UniProt P31152); conditions: ERK4; read-out: % Inhibition @ 100 nM
[13] = target: 468 kinases (Homo sapiens, UniProt O00444); conditions: PLK4; read-out: % Inhibition @ 100 nM
[14] = target: 468 kinases (Homo sapiens, UniProt P10721, V559D/V654A); conditions: KIT(V559D,V654A); read-out: % Inhibition @ 100 nM
[15] = target: 468 kinases (Homo sapiens, UniProt Q9BQI3); conditions: EIF2AK1; read-out: % Inhibition @ 100 nM
[16] = target: 468 kinases (Homo sapiens, UniProt Q9H093); conditions: SNARK; read-out: % Inhibition @ 100 nM
[17] = target: 468 kinases (Homo sapiens, UniProt P21860); conditions: ERBB3; read-out: % Inhibition @ 100 nM
[18] = target: 468 kinases (Homo sapiens, UniProt P51812); conditions: read-out: % Inhibition @ 100 nM
[19] = target: 468 kinases (Homo sapiens, UniProt Q13464); conditions: ROCK1; read-out: % Inhibition @ 100 nM
[20] = target: 468 kinases (Homo sapiens, UniProt O00750); conditions: PIK3C2B; read-out: % Inhibition @ 100 nM
[21] = target: 468 kinases (Homo sapiens, UniProt Q15569); conditions: TESK1; read-out: % Inhibition @ 100 nM
[22] = target: 468 kinases (Homo sapiens, UniProt Q8NG66); conditions: NEK11; read-out: % Inhibition @ 100 nM
[23] = target: 468 kinases (Homo sapiens, UniProt P54762); conditions: EPHB1; read-out: % Inhibition @ 100 nM
[24] = target: 468 kinases (Homo sapiens, UniProt Q9HC98); conditions: NEK6; read-out: % Inhibition @ 100 nM
[25] = target: 468 kinases (Homo sapiens, UniProt O00329); conditions: PIK3CD; read-out: % Inhibition @ 100 nM
[26] = target: 468 kinases (Homo sapiens, UniProt Q9UBE8); conditions: NLK; read-out: % Inhibition @ 100 nM
[27] = target: 468 kinases (Homo sapiens, UniProt P07949, V804M); conditions: RET(V804M); read-out: % Inhibition @ 100 nM
[28] = target: 468 kinases (Homo sapiens, UniProt Q8TD19); conditions: NEK9; read-out: % Inhibition @ 100 nM
[29] = target: 468 kinases (Homo sapiens, UniProt P30291); conditions: WEE1; read-out: % Inhibition @ 100 nM
[30] = target: 468 kinases (Homo sapiens, UniProt P31751); conditions: AKT2; read-out: % Inhibition @ 100 nM
[31] = target: 468 kinases (Homo sapiens, UniProt Q16659); conditions: ERK3; read-out: % Inhibition @ 100 nM
[32] = target: 468 kinases (Homo sapiens, UniProt Q96J92); conditions: WNK4; read-out: % Inhibition @ 100 nM
[33] = target: 468 kinases (Homo sapiens, UniProt P53671); conditions: LIMK2; read-out: % Inhibition @ 100 nM

468 kinases (Homo sapiens, UniProt P54762), sequence (P54762 18-984 limits assumed): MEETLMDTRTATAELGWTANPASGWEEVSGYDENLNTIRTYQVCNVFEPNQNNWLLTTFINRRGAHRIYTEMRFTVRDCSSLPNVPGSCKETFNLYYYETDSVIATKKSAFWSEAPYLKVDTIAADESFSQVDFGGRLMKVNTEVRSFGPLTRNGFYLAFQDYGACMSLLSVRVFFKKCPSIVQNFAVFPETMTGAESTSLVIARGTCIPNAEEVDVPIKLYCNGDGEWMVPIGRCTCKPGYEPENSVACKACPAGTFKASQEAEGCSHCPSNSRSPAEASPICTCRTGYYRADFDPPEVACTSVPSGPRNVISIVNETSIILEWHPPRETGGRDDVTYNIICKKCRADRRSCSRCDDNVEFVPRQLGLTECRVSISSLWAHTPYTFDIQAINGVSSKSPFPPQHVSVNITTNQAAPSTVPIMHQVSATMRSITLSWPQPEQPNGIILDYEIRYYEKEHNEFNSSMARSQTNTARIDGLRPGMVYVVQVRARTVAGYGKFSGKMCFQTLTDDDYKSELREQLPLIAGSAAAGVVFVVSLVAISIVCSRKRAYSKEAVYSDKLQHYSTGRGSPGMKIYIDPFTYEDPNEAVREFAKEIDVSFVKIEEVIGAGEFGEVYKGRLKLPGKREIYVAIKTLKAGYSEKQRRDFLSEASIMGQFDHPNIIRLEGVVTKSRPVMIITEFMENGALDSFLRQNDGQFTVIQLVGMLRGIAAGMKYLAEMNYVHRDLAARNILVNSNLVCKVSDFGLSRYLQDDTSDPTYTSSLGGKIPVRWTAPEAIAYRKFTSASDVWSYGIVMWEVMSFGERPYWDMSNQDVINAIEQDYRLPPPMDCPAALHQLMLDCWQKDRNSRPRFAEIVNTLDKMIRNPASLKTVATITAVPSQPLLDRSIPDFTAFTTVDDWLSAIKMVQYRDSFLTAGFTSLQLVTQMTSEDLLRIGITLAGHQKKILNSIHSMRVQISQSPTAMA
468 kinases (Homo sapiens, UniProt P07949, V804M), sequence (P07949 29-1114 V804M limits assumed): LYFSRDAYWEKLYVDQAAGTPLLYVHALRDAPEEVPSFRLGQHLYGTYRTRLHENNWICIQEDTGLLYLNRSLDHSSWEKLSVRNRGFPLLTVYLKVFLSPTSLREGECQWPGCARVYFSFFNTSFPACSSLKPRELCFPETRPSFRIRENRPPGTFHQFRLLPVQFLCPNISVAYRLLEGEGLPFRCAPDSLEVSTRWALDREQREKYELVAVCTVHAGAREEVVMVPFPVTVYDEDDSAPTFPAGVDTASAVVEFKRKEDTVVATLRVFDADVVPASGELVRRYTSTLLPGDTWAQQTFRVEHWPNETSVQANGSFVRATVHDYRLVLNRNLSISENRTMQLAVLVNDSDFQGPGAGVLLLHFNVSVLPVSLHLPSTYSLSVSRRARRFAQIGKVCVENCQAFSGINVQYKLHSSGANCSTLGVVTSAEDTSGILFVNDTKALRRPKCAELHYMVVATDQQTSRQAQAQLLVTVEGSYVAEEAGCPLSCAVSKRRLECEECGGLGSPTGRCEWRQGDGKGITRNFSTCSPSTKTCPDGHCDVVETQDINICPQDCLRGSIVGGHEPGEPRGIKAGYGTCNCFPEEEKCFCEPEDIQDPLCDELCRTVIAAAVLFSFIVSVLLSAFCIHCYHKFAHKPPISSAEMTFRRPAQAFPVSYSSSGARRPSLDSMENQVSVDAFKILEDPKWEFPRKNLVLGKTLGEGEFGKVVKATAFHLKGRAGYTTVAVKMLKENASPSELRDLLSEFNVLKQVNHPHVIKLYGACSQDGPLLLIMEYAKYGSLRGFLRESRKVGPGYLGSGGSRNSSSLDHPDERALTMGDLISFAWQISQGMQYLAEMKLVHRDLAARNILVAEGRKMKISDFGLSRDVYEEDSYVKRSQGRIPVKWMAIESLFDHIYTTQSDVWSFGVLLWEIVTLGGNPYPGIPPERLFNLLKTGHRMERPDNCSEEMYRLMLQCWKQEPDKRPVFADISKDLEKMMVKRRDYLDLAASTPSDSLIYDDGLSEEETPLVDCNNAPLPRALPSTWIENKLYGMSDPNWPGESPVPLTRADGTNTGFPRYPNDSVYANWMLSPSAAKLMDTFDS
468 kinases (Homo sapiens, UniProt P10721, V559D/V654A), sequence (P10721 26-976 V559D/V654A limits assumed): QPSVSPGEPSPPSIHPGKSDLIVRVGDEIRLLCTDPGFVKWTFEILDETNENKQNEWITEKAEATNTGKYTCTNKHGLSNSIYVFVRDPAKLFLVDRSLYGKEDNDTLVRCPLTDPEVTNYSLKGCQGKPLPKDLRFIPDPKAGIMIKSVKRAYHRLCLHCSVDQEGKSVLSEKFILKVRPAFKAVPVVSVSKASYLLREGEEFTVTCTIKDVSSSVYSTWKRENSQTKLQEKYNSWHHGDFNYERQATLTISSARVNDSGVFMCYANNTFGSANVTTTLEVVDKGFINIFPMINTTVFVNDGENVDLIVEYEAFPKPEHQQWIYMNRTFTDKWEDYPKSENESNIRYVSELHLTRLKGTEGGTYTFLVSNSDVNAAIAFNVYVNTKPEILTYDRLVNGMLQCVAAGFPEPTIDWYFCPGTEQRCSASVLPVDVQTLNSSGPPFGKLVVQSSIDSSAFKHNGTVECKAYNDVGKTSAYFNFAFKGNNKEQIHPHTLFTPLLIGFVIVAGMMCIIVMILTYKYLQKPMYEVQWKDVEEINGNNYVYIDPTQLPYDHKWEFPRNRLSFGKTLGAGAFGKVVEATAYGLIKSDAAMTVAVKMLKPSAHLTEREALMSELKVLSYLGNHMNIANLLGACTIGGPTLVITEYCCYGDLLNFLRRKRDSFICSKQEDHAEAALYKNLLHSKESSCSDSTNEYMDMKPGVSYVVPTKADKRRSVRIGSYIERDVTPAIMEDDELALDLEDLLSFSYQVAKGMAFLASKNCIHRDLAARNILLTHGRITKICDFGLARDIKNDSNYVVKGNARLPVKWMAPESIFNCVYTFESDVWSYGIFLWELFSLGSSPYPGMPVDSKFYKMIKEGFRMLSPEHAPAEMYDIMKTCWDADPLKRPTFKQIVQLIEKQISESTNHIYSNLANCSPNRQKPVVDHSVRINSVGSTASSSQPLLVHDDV
468 kinases (Mycobacterium tuberculosis, UniProt P9WI81), sequence (P9WI81 2-626 limits assumed): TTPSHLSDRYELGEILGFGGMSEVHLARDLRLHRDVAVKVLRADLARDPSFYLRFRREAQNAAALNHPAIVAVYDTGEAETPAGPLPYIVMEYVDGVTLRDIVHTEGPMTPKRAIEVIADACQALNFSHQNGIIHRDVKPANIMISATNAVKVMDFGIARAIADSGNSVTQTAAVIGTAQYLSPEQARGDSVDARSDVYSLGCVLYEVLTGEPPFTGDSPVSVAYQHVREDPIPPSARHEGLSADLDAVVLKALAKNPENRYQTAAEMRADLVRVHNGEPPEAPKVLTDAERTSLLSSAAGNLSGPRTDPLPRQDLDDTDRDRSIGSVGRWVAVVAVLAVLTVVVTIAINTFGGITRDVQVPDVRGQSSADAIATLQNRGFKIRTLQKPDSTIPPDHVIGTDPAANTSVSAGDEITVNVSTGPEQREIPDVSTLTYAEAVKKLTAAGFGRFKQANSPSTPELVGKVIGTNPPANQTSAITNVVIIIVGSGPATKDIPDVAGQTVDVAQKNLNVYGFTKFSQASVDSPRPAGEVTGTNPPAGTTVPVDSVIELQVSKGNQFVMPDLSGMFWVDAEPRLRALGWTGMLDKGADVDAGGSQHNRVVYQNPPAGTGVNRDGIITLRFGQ
468 kinases (Homo sapiens, UniProt Q13464), sequence (Q13464 2-1354 limits assumed): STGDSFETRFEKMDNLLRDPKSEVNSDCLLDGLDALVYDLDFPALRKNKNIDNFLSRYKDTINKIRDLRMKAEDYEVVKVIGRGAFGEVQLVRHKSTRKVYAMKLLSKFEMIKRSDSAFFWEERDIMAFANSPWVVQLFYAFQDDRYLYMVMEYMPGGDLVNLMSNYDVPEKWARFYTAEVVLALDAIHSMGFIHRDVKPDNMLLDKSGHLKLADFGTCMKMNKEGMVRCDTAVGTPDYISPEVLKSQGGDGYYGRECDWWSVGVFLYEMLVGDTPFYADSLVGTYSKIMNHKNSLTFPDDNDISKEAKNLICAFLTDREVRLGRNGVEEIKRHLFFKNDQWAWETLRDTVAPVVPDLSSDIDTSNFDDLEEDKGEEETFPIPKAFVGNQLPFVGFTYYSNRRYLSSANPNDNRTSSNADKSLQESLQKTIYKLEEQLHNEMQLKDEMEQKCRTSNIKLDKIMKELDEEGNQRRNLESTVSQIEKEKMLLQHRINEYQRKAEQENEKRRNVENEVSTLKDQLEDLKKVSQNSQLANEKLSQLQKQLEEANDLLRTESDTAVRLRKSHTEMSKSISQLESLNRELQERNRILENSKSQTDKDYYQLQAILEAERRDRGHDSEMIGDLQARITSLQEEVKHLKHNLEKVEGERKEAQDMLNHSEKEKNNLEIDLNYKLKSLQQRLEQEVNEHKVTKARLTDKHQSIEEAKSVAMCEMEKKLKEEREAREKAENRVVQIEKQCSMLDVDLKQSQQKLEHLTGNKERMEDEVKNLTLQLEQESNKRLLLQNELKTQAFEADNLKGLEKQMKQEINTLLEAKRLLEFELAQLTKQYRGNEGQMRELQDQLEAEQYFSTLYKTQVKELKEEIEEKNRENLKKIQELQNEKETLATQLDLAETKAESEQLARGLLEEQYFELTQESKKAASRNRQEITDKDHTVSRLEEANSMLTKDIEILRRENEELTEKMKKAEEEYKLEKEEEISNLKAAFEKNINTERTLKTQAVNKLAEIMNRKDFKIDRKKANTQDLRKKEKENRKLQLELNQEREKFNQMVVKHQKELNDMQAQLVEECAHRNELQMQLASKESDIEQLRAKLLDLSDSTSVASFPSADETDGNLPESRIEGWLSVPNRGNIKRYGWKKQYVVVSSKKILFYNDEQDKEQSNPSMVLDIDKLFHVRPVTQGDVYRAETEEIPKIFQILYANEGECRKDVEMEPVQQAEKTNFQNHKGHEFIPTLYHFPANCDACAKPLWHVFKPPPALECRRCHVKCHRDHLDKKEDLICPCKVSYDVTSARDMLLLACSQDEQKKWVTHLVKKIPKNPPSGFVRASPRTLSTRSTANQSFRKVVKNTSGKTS

Compound	inhibition at 0.1 µM [1]	inhibition at 0.1 µM [2]	inhibition at 0.1 µM [3]	inhibition at 0.1 µM [4]	inhibition at 0.1 µM [5]	inhibition at 0.1 µM [6]	inhibition at 0.1 µM [7]	inhibition at 0.1 µM [8]	inhibition at 0.1 µM [9]	inhibition at 0.1 µM [10]	inhibition at 0.1 µM [11]	inhibition at 0.1 µM [12]	inhibition at 0.1 µM [13]	inhibition at 0.1 µM [14]	inhibition at 0.1 µM [15]	inhibition at 0.1 µM [16]	inhibition at 0.1 µM [17]	inhibition at 0.1 µM ([18]; RSK2(Kin.Dom.1-N-terminal))	inhibition at 0.1 µM [19]	inhibition at 0.1 µM [20]	further results
CCN(CC)CCNC(=O)c1c(C)[nH]c(/C=C2\C(=O)Nc3ccc(CCO)cc32)c1C [Compound No. 10, (Z)—N-(2-(Diethylamino)ethyl)-5-((5-(2-hydroxyethyl)-2-oxoindolin-3-ylidene)methyl)-2,4-dimethyl-1H-pyrrole-3-carboxamide]	9%	42%	79%	0%	0%	59%	59%	31%	44%	0%	0%	0%	0%	79%	0%	80%	14%	39%	4%	0%	inhibition at 0.1 µM ([18]; RSK2(Kin.Dom.2-C-terminal)): 54%; inhibition at 0.1 µM [21]: 10%; inhibition at 0.1 µM [22]: 0%; inhibition at 0.1 µM [23]: 0%; inhibition at 0.1 µM [24]: 19%; inhibition at 0.1 µM [25]: 0%; inhibition at 0.1 µM [26]: 5%; inhibition at 0.1 µM [27]: 86%; inhibition at 0.1 µM [28]: 0%; inhibition at 0.1 µM [29]: 15%; inhibition at 0.1 µM [30]: 4%; inhibition at 0.1 µM [31]: 0%; inhibition at 0.1 µM [32]: 0%; inhibition at 0.1 µM [33]: 0%
CCN(CC)CCNC(=O)c1c(C)[nH]c(/C=C2\C(=O)Nc3ccc(CCC(N)=O)cc32)c1C [Compound No. 16, (Z)-5-((5-(3-Amino-3-oxopropyl)-2-oxoindolin-3-ylidene)methyl)-N-(2-(diethylamino)ethyl)-2,4-dimethyl-1H-pyrrole-3-carboxamide]	0%	66%	72%	12%	16%	37%	68%	26%	14%	14%	50%	4%	57%	0%	42%	81%	11%	59%	53%	24%	inhibition at 0.1 µM [21]: 5%; inhibition at 0.1 µM [22]: 36%; inhibition at 0.1 µM [23]: 8%; inhibition at 0.1 µM [24]: 0%; inhibition at 0.1 µM [25]: 24%; inhibition at 0.1 µM [26]: 8%; inhibition at 0.1 µM [27]: 99.3%; inhibition at 0.1 µM [28]: 0%; inhibition at 0.1 µM [29]: 24%; inhibition at 0.1 µM [30]: 0%; inhibition at 0.1 µM [31]: 9%; inhibition at 0.1 µM [32]: 55%; inhibition at 0.1 µM [33]: 17%
